Measurements published in US12421232B2, “Kinase inhibitor compounds and compositions and methods of use” (ICAHN SCHOOL OF MEDICINE AT MOUNT SINAI, priority 2018, dated 2025).
Read-outs that look alike come from different tables or passages of the source. Marks after values point to notes of the source that are not given here.

Columns and labels:
FLT3 = biological target: T1, FLT3 (Homo sapiens, UniProt P36888); experiment: KINOMEscan Assay (DiscoverX); assay type: binding; conditions: read-out: % DMSO Ctrl
T1 construct: purchased DiscoverX
T1 sequence (P36888 27-993): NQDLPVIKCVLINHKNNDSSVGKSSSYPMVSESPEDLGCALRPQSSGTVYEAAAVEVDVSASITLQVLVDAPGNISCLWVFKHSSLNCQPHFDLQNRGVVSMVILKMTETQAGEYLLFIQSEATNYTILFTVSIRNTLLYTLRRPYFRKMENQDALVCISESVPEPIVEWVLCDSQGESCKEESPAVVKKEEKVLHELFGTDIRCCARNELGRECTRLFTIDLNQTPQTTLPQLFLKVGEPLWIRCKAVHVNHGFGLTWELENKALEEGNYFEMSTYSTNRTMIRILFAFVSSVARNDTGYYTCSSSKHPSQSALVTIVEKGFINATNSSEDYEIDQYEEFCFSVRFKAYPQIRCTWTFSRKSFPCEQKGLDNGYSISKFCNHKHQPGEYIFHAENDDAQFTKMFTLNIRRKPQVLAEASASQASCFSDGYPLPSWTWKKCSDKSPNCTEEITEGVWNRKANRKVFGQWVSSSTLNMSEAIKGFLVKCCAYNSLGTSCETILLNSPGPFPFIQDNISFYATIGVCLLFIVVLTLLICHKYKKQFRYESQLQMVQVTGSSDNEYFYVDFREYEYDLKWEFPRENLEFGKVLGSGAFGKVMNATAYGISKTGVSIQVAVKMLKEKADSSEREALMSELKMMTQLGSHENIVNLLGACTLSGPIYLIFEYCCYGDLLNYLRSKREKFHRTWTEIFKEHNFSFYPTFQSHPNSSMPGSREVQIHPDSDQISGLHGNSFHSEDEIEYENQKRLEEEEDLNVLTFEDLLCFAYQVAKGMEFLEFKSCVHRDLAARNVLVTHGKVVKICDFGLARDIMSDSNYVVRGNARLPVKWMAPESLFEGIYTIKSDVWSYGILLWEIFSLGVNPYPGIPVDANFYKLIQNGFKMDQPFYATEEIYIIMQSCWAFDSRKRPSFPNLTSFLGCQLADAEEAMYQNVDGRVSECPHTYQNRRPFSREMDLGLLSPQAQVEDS

PIK3CA(I800L) = biological target: T2, PIK3CA(I800L) (Homo sapiens, UniProt P42336, I800L); experiment: KINOMEscan Assay (DiscoverX); assay type: binding; conditions: read-out: % DMSO Ctrl
T2 construct: purchased DiscoverX

[1] = tested on: human β-cells (dispersed human islet cells); experiment: Human β-cell proliferation assay (Ki67 and insulin staining); assay type: cell-based
EGFR(L858R,T790M) = biological target: T3, EGFR(L858R,T790M) (Homo sapiens, UniProt P00533, L858R/T790M); experiment: KINOMEscan Assay (DiscoverX); assay type: binding; conditions: read-out: % DMSO Ctrl
T3 construct: purchased DiscoverX

LRRK2(G2019S) = biological target: T4, LRRK2(G2019S) (Homo sapiens, UniProt Q5S007, G2019S); experiment: KINOMEscan Assay (DiscoverX); assay type: binding; conditions: read-out: % DMSO Ctrl
T4 construct: purchased DiscoverX

FLT3(ITD,D835V) = experiment: KINOMEscan Assay (DiscoverX); assay type: binding; conditions: FLT3(ITD,D835V) mutant; 10 μM
IRAK3 = biological target: T5, IRAK3 (Homo sapiens, UniProt Q9Y616); experiment: KINOMEscan Assay (DiscoverX); assay type: binding; conditions: read-out: % DMSO Ctrl
T5 construct: purchased DiscoverX
T5 sequence (Q9Y616 1-596): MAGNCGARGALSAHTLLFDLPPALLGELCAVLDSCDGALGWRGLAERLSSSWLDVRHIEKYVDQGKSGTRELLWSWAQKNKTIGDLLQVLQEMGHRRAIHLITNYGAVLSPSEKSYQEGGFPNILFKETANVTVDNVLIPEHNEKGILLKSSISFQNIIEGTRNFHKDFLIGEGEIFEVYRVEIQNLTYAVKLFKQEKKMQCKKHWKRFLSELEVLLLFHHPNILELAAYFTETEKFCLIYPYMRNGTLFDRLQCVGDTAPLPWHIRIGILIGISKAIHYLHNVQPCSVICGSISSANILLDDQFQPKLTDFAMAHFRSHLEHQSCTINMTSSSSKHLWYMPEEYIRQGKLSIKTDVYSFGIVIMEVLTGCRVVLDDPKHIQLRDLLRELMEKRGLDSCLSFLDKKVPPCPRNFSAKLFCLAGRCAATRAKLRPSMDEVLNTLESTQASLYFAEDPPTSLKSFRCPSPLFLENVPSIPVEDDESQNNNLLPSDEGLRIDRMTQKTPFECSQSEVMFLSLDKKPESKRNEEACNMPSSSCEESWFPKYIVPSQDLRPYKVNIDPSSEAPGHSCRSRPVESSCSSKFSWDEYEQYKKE

CSNK1E = biological target: T6, CSNK1E (Homo sapiens, UniProt P49674); experiment: KINOMEscan Assay (DiscoverX); assay type: binding; conditions: read-out: % DMSO Ctrl
T6 construct: purchased DiscoverX

DRAK2 = biological target: T7, DRAK2 (Homo sapiens, UniProt O94768); experiment: KINOMEscan Assay (DiscoverX); assay type: binding; conditions: read-out: % DMSO Ctrl
T7 construct: purchased DiscoverX

DAPK2 = biological target: T8, DAPK2 (Homo sapiens, UniProt Q9UIK4); experiment: KINOMEscan Assay (DiscoverX); assay type: binding; conditions: read-out: % DMSO Ctrl
T8 construct: purchased DiscoverX

CDKL5 = biological target: T9, CDKL5 (Homo sapiens, UniProt O76039); experiment: KINOMEscan Assay (DiscoverX); assay type: binding; conditions: read-out: % DMSO Ctrl
T9 construct: purchased DiscoverX

CLK1 = biological target: T10, CLK1 (Homo sapiens, UniProt P49759); experiment: KINOMEscan Assay (DiscoverX); assay type: binding; conditions: read-out: % DMSO Ctrl
T10 construct: purchased DiscoverX

CLK2 = biological target: T11, CLK2 (Homo sapiens, UniProt P49760); experiment: KINOMEscan Assay (DiscoverX); assay type: binding; conditions: read-out: % DMSO Ctrl
T11 construct: purchased DiscoverX

CDK11 = biological target: T12, CDK11 (Homo sapiens, UniProt Q9BWU1); experiment: KINOMEscan Assay (DiscoverX); assay type: binding; conditions: read-out: % DMSO Ctrl
T12 construct: purchased DiscoverX

TGFBR2 = biological target: T13, TGFBR2 (Homo sapiens, UniProt P37173); experiment: KINOMEscan Assay (DiscoverX); assay type: binding; conditions: read-out: % DMSO Ctrl
T13 construct: purchased DiscoverX

DYRK1A = DYRK1A (Homo sapiens, UniProt Q13627); experiment: KINOMEscan Assay (DiscoverX); assay type: binding; set-up: purchased Life Technologies
DAPK1 = biological target: T14, DAPK1 (Homo sapiens, UniProt P53355); experiment: KINOMEscan Assay (DiscoverX); assay type: binding; conditions: read-out: % DMSO Ctrl
T14 construct: purchased DiscoverX

CSNK2A2 = biological target: T15, CSNK2A2 (Homo sapiens, UniProt P19784); experiment: KINOMEscan Assay (DiscoverX); assay type: binding; conditions: read-out: % DMSO Ctrl
T15 construct: purchased DiscoverX

CLK4 = biological target: T16, CLK4 (Homo sapiens, UniProt Q9HAZ1); experiment: KINOMEscan Assay (DiscoverX); assay type: binding; conditions: read-out: % DMSO Ctrl
T16 construct: purchased DiscoverX

PIM1 = biological target: T17, PIM1 (Homo sapiens, UniProt P11309); experiment: KINOMEscan Assay (DiscoverX); assay type: binding; conditions: read-out: % DMSO Ctrl
T17 construct: purchased DiscoverX
T17 sequence (P11309 whole entry): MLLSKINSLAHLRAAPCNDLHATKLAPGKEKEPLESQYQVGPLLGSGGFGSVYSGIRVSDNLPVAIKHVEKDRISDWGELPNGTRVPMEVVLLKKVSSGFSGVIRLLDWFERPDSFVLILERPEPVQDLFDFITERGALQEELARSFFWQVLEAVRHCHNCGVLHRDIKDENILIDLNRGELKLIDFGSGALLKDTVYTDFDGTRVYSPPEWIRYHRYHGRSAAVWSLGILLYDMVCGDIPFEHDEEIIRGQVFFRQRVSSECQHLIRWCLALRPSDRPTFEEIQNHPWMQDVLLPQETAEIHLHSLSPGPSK

T4 sequence (Q5S007 whole entry G2019S): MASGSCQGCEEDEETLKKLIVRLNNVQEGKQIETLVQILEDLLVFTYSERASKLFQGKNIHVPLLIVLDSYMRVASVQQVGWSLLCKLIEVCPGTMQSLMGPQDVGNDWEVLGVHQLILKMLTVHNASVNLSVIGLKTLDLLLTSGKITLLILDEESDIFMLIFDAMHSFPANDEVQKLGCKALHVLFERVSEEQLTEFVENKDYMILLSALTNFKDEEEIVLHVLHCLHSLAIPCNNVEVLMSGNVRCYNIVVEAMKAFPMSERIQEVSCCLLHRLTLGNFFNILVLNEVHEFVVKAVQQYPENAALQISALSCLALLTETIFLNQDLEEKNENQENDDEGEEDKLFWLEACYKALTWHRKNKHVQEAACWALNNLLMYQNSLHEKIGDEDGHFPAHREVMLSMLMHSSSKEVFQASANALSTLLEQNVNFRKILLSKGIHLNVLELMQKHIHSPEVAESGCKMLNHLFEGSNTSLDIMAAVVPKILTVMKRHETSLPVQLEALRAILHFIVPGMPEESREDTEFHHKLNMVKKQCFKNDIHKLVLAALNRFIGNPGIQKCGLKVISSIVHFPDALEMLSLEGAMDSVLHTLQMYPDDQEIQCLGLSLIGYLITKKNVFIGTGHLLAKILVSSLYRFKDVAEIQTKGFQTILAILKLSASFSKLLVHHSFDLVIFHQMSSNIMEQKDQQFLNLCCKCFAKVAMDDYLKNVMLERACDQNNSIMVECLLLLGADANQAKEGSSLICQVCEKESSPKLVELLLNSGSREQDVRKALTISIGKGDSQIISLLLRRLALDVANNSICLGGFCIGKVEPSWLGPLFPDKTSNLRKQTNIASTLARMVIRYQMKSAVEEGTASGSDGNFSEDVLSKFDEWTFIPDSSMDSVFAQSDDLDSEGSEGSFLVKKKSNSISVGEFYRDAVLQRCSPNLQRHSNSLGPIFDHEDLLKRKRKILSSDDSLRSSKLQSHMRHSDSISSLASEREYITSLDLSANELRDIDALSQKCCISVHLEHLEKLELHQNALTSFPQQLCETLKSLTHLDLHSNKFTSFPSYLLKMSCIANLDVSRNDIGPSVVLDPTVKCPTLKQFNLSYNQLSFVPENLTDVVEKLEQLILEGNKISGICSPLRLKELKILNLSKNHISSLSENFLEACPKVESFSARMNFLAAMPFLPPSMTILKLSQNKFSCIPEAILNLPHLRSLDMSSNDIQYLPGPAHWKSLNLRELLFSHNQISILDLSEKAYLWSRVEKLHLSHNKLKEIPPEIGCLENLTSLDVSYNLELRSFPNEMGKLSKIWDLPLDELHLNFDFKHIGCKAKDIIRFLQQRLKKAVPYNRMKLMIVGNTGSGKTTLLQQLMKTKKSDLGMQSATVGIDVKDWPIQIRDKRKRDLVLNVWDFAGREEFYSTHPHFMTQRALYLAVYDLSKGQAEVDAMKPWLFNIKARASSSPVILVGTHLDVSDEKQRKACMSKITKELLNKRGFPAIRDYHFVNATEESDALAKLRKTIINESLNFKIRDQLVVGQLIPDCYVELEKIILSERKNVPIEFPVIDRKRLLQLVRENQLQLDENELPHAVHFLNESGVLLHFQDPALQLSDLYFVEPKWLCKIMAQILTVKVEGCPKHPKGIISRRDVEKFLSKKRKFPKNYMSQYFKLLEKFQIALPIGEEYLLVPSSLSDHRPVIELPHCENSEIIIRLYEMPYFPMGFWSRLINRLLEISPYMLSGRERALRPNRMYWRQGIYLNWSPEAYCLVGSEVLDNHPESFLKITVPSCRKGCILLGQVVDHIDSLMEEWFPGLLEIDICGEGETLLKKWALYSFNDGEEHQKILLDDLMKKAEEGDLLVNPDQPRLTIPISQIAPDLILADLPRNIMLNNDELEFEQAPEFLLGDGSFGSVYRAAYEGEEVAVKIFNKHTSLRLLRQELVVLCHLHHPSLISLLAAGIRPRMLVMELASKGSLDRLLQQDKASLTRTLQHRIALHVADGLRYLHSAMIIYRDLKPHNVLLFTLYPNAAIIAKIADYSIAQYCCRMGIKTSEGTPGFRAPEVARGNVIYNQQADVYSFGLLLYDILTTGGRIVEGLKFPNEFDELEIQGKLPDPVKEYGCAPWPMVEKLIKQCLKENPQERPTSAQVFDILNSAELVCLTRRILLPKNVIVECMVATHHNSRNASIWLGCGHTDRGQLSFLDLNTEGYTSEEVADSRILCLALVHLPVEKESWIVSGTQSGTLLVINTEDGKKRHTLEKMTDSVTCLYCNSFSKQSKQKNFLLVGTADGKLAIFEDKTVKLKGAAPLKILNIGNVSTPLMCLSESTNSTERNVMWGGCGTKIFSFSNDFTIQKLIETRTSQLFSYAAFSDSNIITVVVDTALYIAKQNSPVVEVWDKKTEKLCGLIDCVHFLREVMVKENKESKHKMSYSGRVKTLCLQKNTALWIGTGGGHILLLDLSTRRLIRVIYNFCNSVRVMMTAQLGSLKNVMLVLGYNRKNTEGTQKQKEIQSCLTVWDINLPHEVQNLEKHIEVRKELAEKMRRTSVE
T2 sequence (P42336 whole entry I800L): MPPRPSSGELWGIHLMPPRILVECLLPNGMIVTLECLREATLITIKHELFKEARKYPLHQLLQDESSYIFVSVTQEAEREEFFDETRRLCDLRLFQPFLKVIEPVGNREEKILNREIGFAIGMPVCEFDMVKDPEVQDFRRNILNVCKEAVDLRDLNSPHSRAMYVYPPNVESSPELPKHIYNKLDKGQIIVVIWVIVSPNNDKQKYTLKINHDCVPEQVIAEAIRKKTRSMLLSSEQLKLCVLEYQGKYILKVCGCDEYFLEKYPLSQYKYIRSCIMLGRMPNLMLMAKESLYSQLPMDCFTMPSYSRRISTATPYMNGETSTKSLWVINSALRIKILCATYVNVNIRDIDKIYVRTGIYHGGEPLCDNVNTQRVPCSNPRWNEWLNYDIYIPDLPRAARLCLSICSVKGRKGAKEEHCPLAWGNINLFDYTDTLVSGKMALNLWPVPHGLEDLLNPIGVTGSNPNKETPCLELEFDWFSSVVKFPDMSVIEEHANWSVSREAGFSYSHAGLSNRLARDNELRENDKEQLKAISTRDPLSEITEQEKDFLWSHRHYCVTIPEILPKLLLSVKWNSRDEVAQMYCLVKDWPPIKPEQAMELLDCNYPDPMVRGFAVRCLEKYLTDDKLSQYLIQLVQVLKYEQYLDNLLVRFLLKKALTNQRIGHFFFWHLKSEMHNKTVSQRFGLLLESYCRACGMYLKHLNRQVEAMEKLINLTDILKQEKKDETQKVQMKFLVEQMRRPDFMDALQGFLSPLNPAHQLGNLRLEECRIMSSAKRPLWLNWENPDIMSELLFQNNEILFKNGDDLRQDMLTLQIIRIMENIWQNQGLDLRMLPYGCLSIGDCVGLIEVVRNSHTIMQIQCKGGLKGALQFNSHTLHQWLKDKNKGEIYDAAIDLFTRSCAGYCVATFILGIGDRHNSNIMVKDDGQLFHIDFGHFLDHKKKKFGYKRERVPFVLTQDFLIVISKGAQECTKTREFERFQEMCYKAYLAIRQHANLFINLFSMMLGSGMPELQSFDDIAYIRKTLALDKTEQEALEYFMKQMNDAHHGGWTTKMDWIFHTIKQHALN
T3 sequence (P00533 25-1210 T790M/L858R): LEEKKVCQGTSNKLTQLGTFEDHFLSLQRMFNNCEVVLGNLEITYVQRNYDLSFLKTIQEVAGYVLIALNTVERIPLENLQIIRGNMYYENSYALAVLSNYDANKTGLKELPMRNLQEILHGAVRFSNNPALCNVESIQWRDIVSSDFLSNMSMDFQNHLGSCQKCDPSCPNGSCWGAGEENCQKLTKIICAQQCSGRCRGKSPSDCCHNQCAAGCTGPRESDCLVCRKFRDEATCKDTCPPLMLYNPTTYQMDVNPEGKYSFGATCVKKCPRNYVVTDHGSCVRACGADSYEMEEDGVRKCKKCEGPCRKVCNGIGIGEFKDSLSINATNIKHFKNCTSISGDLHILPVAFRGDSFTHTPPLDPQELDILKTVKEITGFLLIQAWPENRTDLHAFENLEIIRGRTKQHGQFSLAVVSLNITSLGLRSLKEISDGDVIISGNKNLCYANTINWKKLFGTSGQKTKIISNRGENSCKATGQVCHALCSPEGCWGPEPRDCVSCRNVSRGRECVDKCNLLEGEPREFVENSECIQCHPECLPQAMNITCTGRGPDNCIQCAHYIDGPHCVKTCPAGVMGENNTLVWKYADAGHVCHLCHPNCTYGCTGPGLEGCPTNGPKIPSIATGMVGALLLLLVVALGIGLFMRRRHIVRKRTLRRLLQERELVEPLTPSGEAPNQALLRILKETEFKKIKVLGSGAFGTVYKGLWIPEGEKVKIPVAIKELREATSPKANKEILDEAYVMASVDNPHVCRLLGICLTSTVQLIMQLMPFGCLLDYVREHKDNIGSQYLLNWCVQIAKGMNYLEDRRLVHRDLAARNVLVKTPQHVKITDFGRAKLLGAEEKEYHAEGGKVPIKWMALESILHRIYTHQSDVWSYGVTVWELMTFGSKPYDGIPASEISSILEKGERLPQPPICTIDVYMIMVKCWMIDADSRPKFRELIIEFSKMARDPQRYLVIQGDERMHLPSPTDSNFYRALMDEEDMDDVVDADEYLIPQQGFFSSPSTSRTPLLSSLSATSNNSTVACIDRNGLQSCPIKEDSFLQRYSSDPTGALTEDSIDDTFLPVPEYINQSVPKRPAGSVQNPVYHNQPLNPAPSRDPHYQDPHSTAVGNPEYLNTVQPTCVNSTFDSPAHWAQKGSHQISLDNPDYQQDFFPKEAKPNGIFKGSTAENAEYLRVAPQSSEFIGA

Compound | % DMSO Ctrl (FLT3(ITD,D835V)) | remaining binding at 10 µM (IRAK3; IRAK3, 10 μM) | remaining binding at 10 µM (CSNK1E) | remaining binding at 10 µM (DRAK2) | remaining binding at 10 µM (DAPK2) | remaining binding at 10 µM (CDKL5) | remaining binding at 10 µM (CLK1) | remaining binding at 10 µM (CLK2) | remaining binding at 10 µM (CDK11) | remaining binding at 10 µM (TGFBR2) | remaining binding at 10 µM (DAPK1) | remaining binding at 10 µM (CSNK2A2) | remaining binding at 10 µM (FLT3) | remaining binding at 10 µM (PIK3CA(I800L)) | remaining binding at 10 µM (EGFR(L858R,T790M)) | remaining binding at 10 µM (CLK4) | remaining binding at 10 µM (LRRK2(G2019S)) | remaining binding at 10 µM (PIM1) | remaining binding at 10 µM (IRAK3) | other results
COc1ccc2c(c1)[nH]c1c(C)nc(CO)cc12 [Compound 2-8, (1-Methyl-7-methoxy-9H-pyrido[3,4-b]indol-3-yl)methanol] | 37 % DMSO Ctrl | 70% | – | – | – | – | – | – | – | – | – | – | – | – | – | – | – | – | – | remaining binding at 10 µM (FLT3; FLT3, 10 μM): 100%; remaining binding at 10 µM (PIK3CA(I800L); PIK3CA(I800L) mutant, 10 μM): 63%; beta cell toxicity [1]: did not cause toxicity; remaining binding at 10 µM (EGFR(L858R,T790M); EGFR(L858R,T790M) mutant, 10 μM): 79%; remaining binding at 10 µM (LRRK2(G2019S); LRRK2(G2019S) mutant, 10 μM): 98%
COc1ccc2c3ccnc(C)c3n(CCCc3noc(N)n3)c2c1 [Compound 20-13, 3-(3-(7-Methoxy-1-methyl-β-carbolin-9-yl)propyl)-5-amino-1,2,4-oxadiazole] | 11 ^c % DMSO Ctrl | – | 61% | 100% | 92% | 21% | 4.1% | 4.2% | 81% | 100% | 91% | 50% | 86% | 10% | 9.2% | 1.7% | 5.1% | 28% | 62% | % DMSO Ctrl (DYRK1A; DYRK1A, 10 μM): 0 ^b % DMSO Ctrl; human β-cell proliferation (in words) ([1]; 5 μM, versus harmine at 10 μM): induced Human 3-Cell proliferation to a greater extent that harmine
C#CCn1c2cc(OC)ccc2c2ccnc(C)c21 [Compound 20-23a, 3-(7-Methoxy-1-methyl-β-carbolin-9-yl)-propan-1-yne] | 11 ^c % DMSO Ctrl | 34% | 26% | 100% | 70% | 22% | 1.9% | 0.9% | 40% | 98% | 89% | 54% | 65% | 73% | 100% | 1.1% | 100% | – | – | remaining binding at 10 µM (DYRK1A; read-out: % DMSO Ctrl): 0%; remaining binding at 10 µM (PIM1; PIM1, 10 μM): 26%
COc1ccc2c(c1)[nH]c1c(C)nccc12 [Harmine, reference compound] | – | – | – | – | – | – | – | – | – | – | – | – | – | – | – | – | – | 45% | 35% | –
